Values after ≈ are worked out from the molar mass of the structure shown. Where two headings read alike, the source gives them in different places.
Key:
Candida albicans = experiment: Minimum inhibitory concentration, conventional tube dilution method; format: cell-based; conditions: fungus, tube dilution, 37 degrees, 24 hours, between 1 and 6 strains, mg/100 cc, decimal comma, read-out: Minimal Inhibitory Concentration, Cand. Alb.
From the text: (§1) The activity of some of the new nitrofuryl quinoline derivatives of the present invention is exemplified in Table 1 against a gram-positive (Staph. aureus), a gram-negative (Salmonella) bacterium and a fungus (Candida albicans). Table 1 indicates the minimum inhibitory concentration of the compound under reference in mg/100 cc required in order to inhibit the growth between 1 and 6 strains of each type. The measurements have been carried out by the conventional tube dilution method at 37 degrees after 24 hours.

Salmonella = experiment: as above; format: cell-based; conditions: read-out: Minimal Inhibitory Concentration, Salm.
From the text: as §1

[1] = gram-negative, tube dilution, 37 degrees, 24 hours, between 1 and 6 strains, mg/100 cc, decimal comma

With `CCc1ccc2nc(CC)cc(-c3ccc([N+](=O)[O-])o3)c2c1` [C2 H5 H NF H C2 H5 H H, 2-ethyl-4-[2'-(5'-nitrofuryl)]-6-ethyl quinoline] the MIC (Candida albicans) was greater than 50 µg/mL and the MIC (Salmonella; [1]) was greater than 10 µg/mL.
Work on `CCc1cc(-c2ccc([N+](=O)[O-])o2)c2cc(C)ccc2n1` [C2 H5 H NF H CH3 H H, 2-ethyl-4-[2'-(5'-nitrofuryl)]-6-methyl quinoline] yielded an MIC (Candida albicans) of less than 5 µg/mL and an MIC (Salmonella; 24 h) greater than 10 µg/mL.
In the case of `CC(=O)OCc1cc(-c2ccc([N+](=O)[O-])o2)c2ccccc2n1` [CH2 OCOCH3 H NF H H H H, 2-acetoxymethyl-4-[2'-(5'-nitrofuryl)]quinoline], the MIC (Candida albicans) was 5 µg/mL (≈ 16 µM) and the MIC (Salmonella; [1]) was greater than 50 µg/mL.
`CC(=O)OCc1cc(-c2ccc([N+](=O)[O-])o2)c2ccc(OC(C)=O)cc2n1` [CH2 OCOCH3 H NF H H OCOCH3 H, 2-acetoxymethyl-4-[2'-(5'-nitrofuryl)]-7-acetoxy quinoline] gave an MIC (Candida albicans) of 50 to 100 µg/mL (≈ 135 to 270 µM) and an MIC (Salmonella; [1]) of 10 to 25 µg/mL (≈ 27 to 67.5 µM).
Molecule `CCc1cccc2c(-c3ccc([N+](=O)[O-])o3)cc(C)nc12` [CH3 H NF H H H C2 H5] has an MIC (Candida albicans) of 100 µg/mL (≈ 354 µM) and an MIC (Salmonella; [1]) greater than 50 µg/mL.
Molecule `Cc1cc(-c2ccc([N+](=O)[O-])o2)c2ccc(N)c(C)c2n1` [CH3 H NF H H NH2 CH3] has an MIC (Candida albicans) of 5 µg/mL (≈ 17.6 µM) and an MIC (Salmonella; 24 h) of 1 to 5 µg/mL (≈ 3.53 to 17.6 µM).
Molecule `COc1ccc2c(-c3ccc([N+](=O)[O-])o3)cc(C)nc2c1` [CH3 H NF H H OCH3 H, 2-methyl-4-[2'-(5'-nitrofuryl)]-7-methoxy quinoline] has an MIC (Candida albicans) of 5 µg/mL (≈ 17.6 µM) and an MIC (Salmonella; [1]) of 10 µg/mL (≈ 35.2 µM).
`CC(=O)Oc1ccc2c(-c3ccc([N+](=O)[O-])o3)cc(C)nc2c1` [CH3 H NF H H OCOCH3 H] showed an MIC (Candida albicans) of 10 µg/mL (≈ 32 µM) and an MIC (Salmonella; [1]) of 2 µg/mL (≈ 6.4 µM).
`COc1cc2nc(C)cc(-c3ccc([N+](=O)[O-])o3)c2cc1N` [CH3 H NF H NH2 OCH3 H, 2-methyl-4-[2'-(5'-nitrofuryl)]-6-amino-7-methoxy-quinoline] showed an MIC (Candida albicans) of 5 µg/mL (≈ 16.7 µM) and an MIC (Salmonella; [1]) of 1 to 5 µg/mL (≈ 3.34 to 16.7 µM).
`COc1cc2nc(C)cc(-c3ccc([N+](=O)[O-])o3)c2cc1NC(C)=O` [CH3 H NF H NHCOCH3 OCH3 H, 2-methyl-4-[2'-(5'-nitrofuryl)]-6-acetylamino-7-methoxy-quinoline] was tested, and the MIC (Candida albicans) was 50 µg/mL (≈ 146 µM) and the MIC (Salmonella; [1]) was greater than 50 µg/mL.
`O=[N+]([O-])c1ccc(-c2cc(C=NO)nc3ccccc23)o1` [CHNOH H NF H H H H, 4-[2'-(5'-nitrofuryl)]quinoline-2-carboxaldehyde oxime] gave an MIC (Candida albicans) of 10 µg/mL (≈ 35.3 µM) and an MIC (Salmonella; [1]) of 5 µg/mL (≈ 17.7 µM).
Work on `CCOc1ccc2c(-c3ccc([N+](=O)[O-])o3)cc(C=NO)nc2c1` [CHNOH H NF H H OC2 H5 H] yielded an MIC (Candida albicans) of 50 µg/mL (≈ 153 µM) and an MIC (Salmonella; [1]) greater than 50 µg/mL.
With `CC(=O)c1cc(-c2ccc([N+](=O)[O-])o2)c2ccccc2n1` [COCH3 H NF H H H H, 4-[2'-(5'-nitrofuryl)]quinoline-2-methyl ketone] the MIC (Candida albicans) was greater than 50 µg/mL and the MIC (Salmonella; [1]) was greater than 50 µg/mL.
Work on `CCOC(=O)c1cc(-c2ccc([N+](=O)[O-])o2)c2ccccc2n1` [COOC2 H5 H NF H H H H, 2-carbethoxy-4-[2'-(5'-nitrofuryl)]quinoline] yielded an MIC (Candida albicans) greater than 50 µg/mL and an MIC (Salmonella; [1]) greater than 50 µg/mL.
In the case of `CCc1cc(-c2ccc([N+](=O)[O-])o2)c2ccc(O)cc2[n+]1[O-]` [O C2 H5 H NF H H OH H], the MIC (Candida albicans) was 25 µg/mL (≈ 83.3 µM) and the MIC (Salmonella; [1]) was 5 µg/mL (≈ 16.7 µM).
With `Cc1ccc2c(-c3ccc([N+](=O)[O-])o3)cc(C)[n+]([O-])c2c1` [O CH3 H NF H H CH3 H] the MIC (Candida albicans) was 5 µg/mL (≈ 17.6 µM) and the MIC (Salmonella; [1]) was greater than 50 µg/mL.
In the case of `CC(=O)Oc1ccc2c(-c3ccc([N+](=O)[O-])o3)cc(C)[n+]([O-])c2c1` [O CH3 H NF H H OCOCH3 H], the MIC (Candida albicans) was 50 µg/mL (≈ 152 µM) and the MIC (Salmonella; [1]) was 5 µg/mL (≈ 15.2 µM).
`Cc1cc(-c2ccc([N+](=O)[O-])o2)c2ccc(O)cc2[n+]1[O-]` [O CH3 H NF H H OH H, 2-Methyl-4-[2'-(5'-nitrofuryl)]-7-hydroxy quinoline N-oxide] gave an MIC (Candida albicans) of 100 µg/mL (≈ 349 µM) and an MIC (Salmonella; [1]) of 5 to 10 µg/mL (≈ 17.5 to 34.9 µM).
For `COc1cc2c(cc1N)c(-c1ccc([N+](=O)[O-])o1)cc(C)[n+]2[O-]` [O CH3 H NF H NH2 OCH3 H], the MIC (Candida albicans) was greater than 50 µg/mL and the MIC (Salmonella; [1]) was 50 µg/mL (≈ 159 µM).
Molecule `COc1cc2c(cc1NC(C)=O)c(-c1ccc([N+](=O)[O-])o1)cc(C)[n+]2[O-]` [O CH3 H NF H NHCOCH3 OCH3 H] has an MIC (Candida albicans) of 50 µg/mL (≈ 140 µM) and an MIC (Salmonella; [1]) of 10 to 25 µg/mL (≈ 28 to 70 µM).

Reference: US4224448A, “2'-(5'-Nitrofuryl) substituted quinolines” (priority 1966, dated 1980)
